The test system of experiment [1] is BRCA1 deficient ovarian cancer cells, UWB1.289. Kind of experiment: BrdU proliferation assay, single drugs after cisplatin. The conditions noted are these: cisplatin 1 μM for 24 hours followed by the drug alone for 6 days, result in words. Type of experiment: cell-based. As for the experimental part: (§1) Methods • Cell morphology, viability and proliferation rate was assessed by visual and counting method. • Day 0: Cells were split and around 1000 cells/well were seeded in normal complete media. • Day 1: Cisplatin was added at 1 μM to the test and controls wells. Untreated cells were left as control. • Day 2: medium containing cisplatin was discarded and new fresh media containing bromodeoxyuridine (BrdU) and the drugs at the concentrations shown in table 1, below, was added. • Day 6: medium was discarded, and cells fixed. BrdU assay was performed according to the manufacturer. • Controls comprised cells without BrdU (Blank), untreated cells (UN) and Cisplatin treated cells for 24 hours only (CIS). • All experiments were conducted in triplicate.
(§2) BrdU Proliferation Assay • After 6 days of incubation with drugs, the media was discarded, and cells were fixed for 30 minutes, at room temperature, with FixDenat Solution. • FixDenat Solution was then removed and substituted with Anti-BrdU-POD working solution for 2 hours at room temperature. • Plates were then washed 3 times with Washing buffer. • Substrate solution was added. • The reaction was stopped by adding H2SO4 and immediately read at 450 nm.
Data was analysed using Excel and Prism software. The average of the absorbances and the standard error were calculated using the technical triplicate for each condition.

For another experiment, the system named is UWB1.289 cell line. The experiment in a line: BrdU proliferation assay, combinations of PARPis and ATR inhibitors after cisplatin. The experiment is classed as cell-based. The conditions noted are these: for proliferation in combination with Aurothiomalate (ATM), compared with the gold complex alone: then Aurothiomalate (ATM) plus the labelled drug for 6 days; for proliferation in combination with auranofin, compared with the gold complex alone: then auranofin plus the labelled drug for 6 days. How it is done: as §1, §2
The methods were the same as described in example 1 except that the new fresh media added on day 2 contained bromodeoxyuridine (BrdU) and the drugs at the concentrations shown in table 2, below. All possible combinations of concentrations for compounds A and B were tested.

In experiment [2] the test system is MDA-MB-436 (BRCA1 mutation) breast cancer cell xenograft. Kind of experiment: MDA-MB-436 (BRCA1 mutation) breast cancer cell xenograft experiment. Type of experiment: in vivo. The conditions noted are these: mice, 100 mg/kg BID orally, MDA-MB-436 xenograft. As for the experimental part: The MDA-MB-436 tumour cell line was maintained in vitro as monolayer culture in DMEM medium modified supplemented with 10% heat inactivated foetal bovine serum at 37° C. in an atmosphere of 5% CO2 in air. The tumour cells were routinely sub-cultured once a week by trypsin-EDTA treatment, not to exceed 4-5 passages. The cells growing in an exponential growth phase were harvested and counted for tumour inoculation.
All mice were inoculated subcutaneously on the right flank with MDA-MB-436 tumour cells (1×10^7) in 0.1 ml of DMEM with Matrigel mixture (1:1 ratio) for tumour development. The treatment started when the mean tumour size reached is approximately 100-150 mm^3. Mice were then be assigned to groups such that the mean tumour volume is the same for each treatment group. The treatments were administered to the tumour-bearing mice orally at 12 hour intervals.
560 mg linezolid was dissolved in 1.4 ml ethanol and 12.6 ml PEG400. The solution was vortexed and sonicated with high energy ultrasonic probe to get a uniform solution. The resultant solution was used for 1 day.
The measurement of tumour size was conducted twice weekly with a calliper and recorded. The tumour volume (mm3) was estimated using the formula: TV=a×b^2/2, where “a” and “b” are long and short diameters of a tumour, respectively.

Where [3] appears, read: UWB1.289, cisplatin 1 μM 24 hours, result in words.

“Also recorded” adds a separate entry of the source.

Consider `OC[C@H]1O[C@H]([S-])[C@H](O)[C@@H](O)[C@@H]1O.[Au+]` [ATG, Aurothioglucose], for which the “reduction of proliferation of the cancer cells (BrdU absorbance)” value (shortened to “reduction … (BrdU absorbance)”) in experiment [1] is “effectively reduce proliferation”.
On the same count and under the same terms, then `O=C(O)CC([S-])C(=O)O.[Au+]` (stereo not shown) [ATM, Aurothiomalate], with “effectively reduce proliferation”.
Consider `C[C@@H]1COCCN1c1cc(C2([S@](C)(=N)=O)CC2)nc(-c2cc[nH]c3nccc2-3)n1` [AZD, AZD6738], for which, in the experiment with UWB1.289 cell line (setting [3]), the “proliferation in combination with Aurothiomalate (ATM), compared with the gold complex alone” value is on record as “particularly marked improvement over the gold complexes when used alone” and the “proliferation in combination with auranofin, compared with the gold complex alone” value is “particularly marked improvement over the gold complexes when used alone”. Besides, the “proliferation in combination with olaparib, compared with olaparib alone” value with UWB1.289 cell line (UWB1.289, cisplatin 1 μM 24 hours, then olaparib plus the labelled drug for 6 days, result in words) is “further decreased proliferation when compared to the degree of proliferation observed for olaparib alone”.
For `O=C(c1cc(Cc2n[nH]c(=O)c3ccccc23)ccc1F)N1CCN(C(=O)C2CC2)CC1` [Olaparib], the “reduction … (BrdU absorbance)” value in experiment [1] is given as “effectively reduce proliferation”.
Still for that read-out and setting: for `CC(=O)OC[C@H]1O[C@@H]([S-])[C@H](OC(C)=O)[C@@H](OC(C)=O)[C@@H]1OC(C)=O.CCP(CC)CC.[Au+]` [auranofin] the value was “effectively reduce proliferation”.
For `CC(=O)NC[C@H]1CN(c2ccc(N3CCOCC3)c(F)c2)C(=O)O1` [linezolid], in the experiment with UWB1.289 cell line (setting [3]), the “proliferation in combination with Aurothiomalate (ATM), compared with the gold complex alone” value is listed as “particularly marked improvement over the gold complexes when used alone; also recorded: particularly noticeable synergistic effect” and the “proliferation in combination with auranofin, compared with the gold complex alone” value was “particularly marked improvement over the gold complexes when used alone”. Also, the “synergistic effect on proliferation when used with a PARPi” value with UWB1.289 cell line (UWB1.289, combination with a PARPi, result in words) is “synergistic effect”. Moreover, the percentage proliferation in the experiment with UWB1.289 cell line (UWB1.289, linezolid 100 nM together with Aurothiomalate (ATM) 30 nM, after cisplatin 1 μM 24 hours) was determined as 2%. Also, the “proliferation reduction compared with AZD6738” value in the experiment with UWB1.289 cell line (inventors' conclusion, result in words) is reported as “equivalent to proliferation reduction achieved by AZD6738”. Also, in experiment [2], the “reduced tumour size compared to the control group” value is reported as 38%. Further, the “reduction … (BrdU absorbance)” value in experiment [1] was “reduce proliferation of cancer cells when used alone”.
Take `NC(=O)c1cccc2cn(-c3ccc([C@@H]4CCCNC4)cc3)nc12` [niraparib]: the “reduction … (BrdU absorbance)” value in experiment [1] is listed as “effectively reduce proliferation”.
Same read-out and setting: then `CNCc1ccc(-c2[nH]c3cc(F)cc4c3c2CCNC4=O)cc1` [rucaparib], with “effectively reduce proliferation”.

These data come from patent US20210267992A1, “5-ACETAMIDOMETHYL-OXAZOLIDINONE DERIVATIVES FOR USE IN THE TREATMENT OF CANCER” (Varsity Pharmaceuticals Limited, priority 2018, published 2021).
